We go through five compounds from patent publication US8623857B2, “N-phenyl imidazole carboxamide inhibitors of 3-phosphoinositide-dependent protein kinase-1” (Merck Sharp & Dohme Corp., priority 2010, dated 2014).

For one assay, the target named is T1, recombinant human PDK1 (Homo sapiens, UniProt O15530).
T1 construct: containing amino acids 51-556 of the human PDK1 enzyme; made in house; host or cells: Sf9 insect cells
T1 sequence (O15530 51-556): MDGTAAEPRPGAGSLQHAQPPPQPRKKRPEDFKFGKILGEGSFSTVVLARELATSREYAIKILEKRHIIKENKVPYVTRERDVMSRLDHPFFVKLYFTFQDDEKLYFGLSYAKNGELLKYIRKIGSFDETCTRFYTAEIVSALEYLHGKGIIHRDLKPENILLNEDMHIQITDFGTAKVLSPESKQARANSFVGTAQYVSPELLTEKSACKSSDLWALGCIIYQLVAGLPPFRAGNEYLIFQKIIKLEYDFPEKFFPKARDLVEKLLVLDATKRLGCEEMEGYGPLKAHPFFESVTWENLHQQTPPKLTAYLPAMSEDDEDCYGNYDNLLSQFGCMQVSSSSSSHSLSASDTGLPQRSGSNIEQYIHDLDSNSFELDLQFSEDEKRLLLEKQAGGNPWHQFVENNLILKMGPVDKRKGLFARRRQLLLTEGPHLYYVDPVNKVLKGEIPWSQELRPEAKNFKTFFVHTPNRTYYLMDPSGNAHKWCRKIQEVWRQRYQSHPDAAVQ
The assay is described as follows: PDK1 IMAP fluorescence polarization assay (inhibition of peptide substrate phosphorylation). The class given is biochemical. Particulars: Table 10; compounds 97-132.

Another assay concerns the target T2, PDK-1 (Homo sapiens, UniProt O15530).
T2 sequence (O15530 1-556): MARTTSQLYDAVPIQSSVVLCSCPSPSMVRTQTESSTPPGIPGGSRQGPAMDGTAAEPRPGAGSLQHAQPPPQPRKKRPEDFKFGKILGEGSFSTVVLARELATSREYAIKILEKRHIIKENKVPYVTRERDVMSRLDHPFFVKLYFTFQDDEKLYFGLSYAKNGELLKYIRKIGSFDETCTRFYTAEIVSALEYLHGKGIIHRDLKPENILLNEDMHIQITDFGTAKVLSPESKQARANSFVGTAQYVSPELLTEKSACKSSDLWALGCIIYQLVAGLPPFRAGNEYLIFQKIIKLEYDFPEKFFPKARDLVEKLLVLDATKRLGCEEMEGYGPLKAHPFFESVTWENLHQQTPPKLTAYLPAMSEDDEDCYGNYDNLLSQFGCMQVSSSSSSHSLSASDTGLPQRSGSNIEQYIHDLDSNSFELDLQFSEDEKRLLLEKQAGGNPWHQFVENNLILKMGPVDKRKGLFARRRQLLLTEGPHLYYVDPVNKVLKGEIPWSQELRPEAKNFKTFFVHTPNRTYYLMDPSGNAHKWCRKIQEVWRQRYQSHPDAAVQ
The following applies: in vitro; cited from earlier work.

In general, IC50 refers to the concentration that gives 50% inhibition. For the compound `CNc1nc(-c2c[nH]c(C(=O)Nc3cccc(F)c3N3CCC(CN)CC3)n2)cc(N2CC[C@@](OC)(C(=O)NC3CCCCC3)C2)n1` [Compound 129, (S)—N-(2-(4-(aminomethyl)piperidin-1-yl)-3-fluorophenyl)-4-(6-(3-(cyclohexylcarbamoyl)-3-methoxypyrrolidin-1-yl)-2-(methylamino)pyrimidin-4-yl)-1H-imidazole-2-carboxamide], the IC50 at recombinant human PDK1 fell in the range of 1 to 50 nM.
For `CNc1nc(-c2c[nH]c(C(=O)Nc3cccc(F)c3N3CCC(CN)CC3)n2)cc(N2CC[C@@](COC)(C(=O)NCc3ccccc3)C2)n1` [Compound 130, (R)—N-(2-(4-(aminomethyl)piperidin-1-yl)-3-fluorophenyl)-4-(6-(3-(benzylcarbamoyl)-3-(methoxymethyl)pyrrolidin-1-yl)-2-(methylamino)pyrimidin-4-yl)-1H-imidazole-2-carboxamide], the concentration for half-maximal inhibition (IC50) at recombinant human PDK1 fell in the range of 1 to 50 nM.
Consider `CNc1nc(-c2c[nH]c(C(=O)Nc3cccc(F)c3N3CCC(CN)CC3)n2)cc(N2CC[C@@](COC)(C(=O)NC3CC3)C2)n1` [Compound 131, (R)—N-(2-(4-(aminomethyl)piperidin-1-yl)-3-fluorophenyl)-4-(6-(3-(cyclopropylcarbamoyl)-3-(methoxymethyl)pyrrolidin-1-yl)-2-(methylamino)pyrimidin-4-yl)-1H-imidazole-2-carboxamide], for which the IC50 at recombinant human PDK1 was in the range of 1 to 50 nM.
As to `CNc1nc(-c2c[nH]c(C(=O)Nc3cccc(F)c3N3CCC(CN)CC3)n2)cc(N2CC[C@@](COC)(C(=O)NC3CCCCC3)C2)n1` [Compound 132, (R)—N-(2-(4-(aminomethyl)piperidin-1-yl)-3-fluorophenyl)-4-(6-(3-(cyclohexylcarbamoyl)-3-(methoxymethyl)pyrrolidin-1-yl)-2-(methylamino)pyrimidin-4-yl)-1H-imidazole-2-carboxamide], the IC50 on recombinant human PDK1 lay within 1 to 50 nM.
On to “PIFtide: "The peptide sequence of PIFtide is RREPRILSEEEQEMFRDFDYIADWC (SEQ ID NO:2)"; "interacts with PDK-1 and is derived from PRK2 kinase" (PIFtide)”, for which, in the assay with PDK-1, the “enhance PDK-1 phosphorylation of substrates” value is reported as “approximately 4 fold”.
